Reference: US7507741B2, “Heterocyclic compounds” (SmithKline Beecham Corporation, priority 1999, dated 2009)

What was measured:
[1] = biological target: T1, EGFr isolated from solubilised A431 cell membranes (Homo sapiens, UniProt P00533); test: Substrate phosphorylation assay, EGFr; format: biochemical; conditions: ATP and peptide at Km
T1 construct: EGFr isolated from solubilised A431 cell membranes; endogenous in cells; host or cells: A431 cell membranes, solubilised
Description: (§1) The substrate phosphorylation assays use baculovirus expressed, recombinant constructs of the intracellular domains of c-erbB-2 and c-erbB-4 that are constitutively active and EGFr isolated from solubilised A431 cell membranes. […] The reaction is stopped by the addition of EDTA (final concentration 0.15 mM) and a sample is transferred to a streptavidin-coated 96-well plate. The plate is washed and level of phosphotyrosine on the peptide is determined using a Europium-labelled antiphosphotyrosine antibody and quantified with a time-resolved fluorescence technique.

N87 cells = test: Methylene blue growth inhibition assay, N87; format: cell-based; conditions: 72 h; human gastric tumor cell line, 3 days
Description: (§2) Human breast (BT474), head and neck (HN5) and gastric tumor (N87) cell lines were cultured in low glucose DMEM (Life Technologies 12320-032) containing 10% fetal bovine serum (FBS) at 37° C. in a humidified 10% CO2, 90% air incubator. The SV40 transformed human mammary epithelial cell line HB4a was transfected with either human H-ras cDNA (HB4a r4.2) or the human c-erbB2 cDNA (HB4a c5.2). The HB4a clones were cultured in RPMI containing 10% FBS, insulin (5 μg/ml), hydrocortisone (5 μg/ml), supplemented with the selection agent hygromycin B (50 μg/ml). Cells were harvested using trypsin/EDTA, counted using a haemocytometer, and plated in […] of the appropriate media, at the following densities, in a 96-well tissue culture plate (Falcon 3075): BT474 10,000 cells/well, HN5 3,000 cells/well, N87 10,000 cells/well, HB4a c5.2 3,000 cells/well, HB4a r4.2 3,000 cells/well. The next day, compounds were diluted in DMEM containing […] gentamicin, at twice the final required concentration, from 10 mM stock solutions in DMSO. […] of these dilutions were added to the […] of media currently on the cell plates. Medium containing 0.6% DMSO was added to control wells. Compounds diluted in DMEM were added to all cell lines, including the HB4a r4.2 and HB4a c5.2 cell lines. The final concentration of DMSO in all wells was 0.3%. Cells were incubated at 37° C., 10% CO2 for 3 days. Medium was removed by aspiration. Cell biomass was estimated by staining cells with 100 μl per well methylene blue (Sigma M9140, 0.5% in 50:50 ethanol:water), and incubation at room temperature for at least 30 minutes. Stain was removed, and the plates rinsed under a gentle stream of water, and air-dried. To release stain from the cells 100 μl of solubilization solution was added (1% N-lauroyl sarcosine, Sodium salt, Sigma L5125, in PBS), and plates were shaken gently for about 30 minutes. Optical density at 620 nm was measured on a microplate reader. Percent inhibition of cell growth was calculated relative to vehicle treated control wells. Concentration of compound that inhibits 50% of cell growth (IC50) was interpolated using nonlinear regression (Levenberg-Marquardt) and the equation, y=Vmax*(1−(x/(K+x)))+Y2, where “K” was equal to the IC50.

HB4a c5.2 cells = test: Methylene blue growth inhibition assay, HB4a c5.2; format: cell-based; conditions: HB4a-C5.2, 72 h; human mammary epithelial line transfected with human c-erbB2 cDNA, 3 days; read-out: HB4a c5.2 IC50 (cell growth)
Description: as §2

c-erbB-4 = biological target: T2, c-erbB-4 (Homo sapiens, UniProt Q15303); test: Substrate phosphorylation assay, c-erbB-4; format: biochemical; conditions: recombinant intracellular domain, baculovirus expressed; ATP and peptide at Km; read-out: ErbB4 IC50
T2 construct: baculovirus expressed, recombinant constructs of the intracellular domains of c-erbB-2 and c-erbB-4; made in house
Description: as §1, with “membranes. The method measures the ability of the isolated enzymes to catalyse the transfer of the γ-phosphate from ATP onto tyrosine residues in a biotinylated synthetic peptide (Biotin-[…].” for “membranes.”, “technique. The results are shown in Table 1 as the IC50 value in Micromolar ranges.” for “technique.”

HN5 cells = test: Methylene blue growth inhibition assay, HN5; format: cell-based; conditions: HN5, 72 h; human head and neck tumor cell line, 3 days
Description: as §2

c-erbB-2 = biological target: T3, c-erbB-2 (Homo sapiens, UniProt P04626); test: Substrate phosphorylation assay, c-erbB-2; format: biochemical; conditions: recombinant intracellular domain, baculovirus expressed; ATP and peptide at Km; read-out: ErbB2 IC50
T3 construct: baculovirus expressed, recombinant constructs of the intracellular domains of c-erbB-2 and c-erbB-4; made in house
Description: as §1, with “technique. The results are shown in Table 1 as the IC50 value in Micromolar ranges.” for “technique.”

BT474 cells = test: Methylene blue growth inhibition assay, BT474; format: cell-based; conditions: BT-474, 72 h; human breast tumor cell line, 3 days
Description: as §2

T1 sequence (P00533 25-1210): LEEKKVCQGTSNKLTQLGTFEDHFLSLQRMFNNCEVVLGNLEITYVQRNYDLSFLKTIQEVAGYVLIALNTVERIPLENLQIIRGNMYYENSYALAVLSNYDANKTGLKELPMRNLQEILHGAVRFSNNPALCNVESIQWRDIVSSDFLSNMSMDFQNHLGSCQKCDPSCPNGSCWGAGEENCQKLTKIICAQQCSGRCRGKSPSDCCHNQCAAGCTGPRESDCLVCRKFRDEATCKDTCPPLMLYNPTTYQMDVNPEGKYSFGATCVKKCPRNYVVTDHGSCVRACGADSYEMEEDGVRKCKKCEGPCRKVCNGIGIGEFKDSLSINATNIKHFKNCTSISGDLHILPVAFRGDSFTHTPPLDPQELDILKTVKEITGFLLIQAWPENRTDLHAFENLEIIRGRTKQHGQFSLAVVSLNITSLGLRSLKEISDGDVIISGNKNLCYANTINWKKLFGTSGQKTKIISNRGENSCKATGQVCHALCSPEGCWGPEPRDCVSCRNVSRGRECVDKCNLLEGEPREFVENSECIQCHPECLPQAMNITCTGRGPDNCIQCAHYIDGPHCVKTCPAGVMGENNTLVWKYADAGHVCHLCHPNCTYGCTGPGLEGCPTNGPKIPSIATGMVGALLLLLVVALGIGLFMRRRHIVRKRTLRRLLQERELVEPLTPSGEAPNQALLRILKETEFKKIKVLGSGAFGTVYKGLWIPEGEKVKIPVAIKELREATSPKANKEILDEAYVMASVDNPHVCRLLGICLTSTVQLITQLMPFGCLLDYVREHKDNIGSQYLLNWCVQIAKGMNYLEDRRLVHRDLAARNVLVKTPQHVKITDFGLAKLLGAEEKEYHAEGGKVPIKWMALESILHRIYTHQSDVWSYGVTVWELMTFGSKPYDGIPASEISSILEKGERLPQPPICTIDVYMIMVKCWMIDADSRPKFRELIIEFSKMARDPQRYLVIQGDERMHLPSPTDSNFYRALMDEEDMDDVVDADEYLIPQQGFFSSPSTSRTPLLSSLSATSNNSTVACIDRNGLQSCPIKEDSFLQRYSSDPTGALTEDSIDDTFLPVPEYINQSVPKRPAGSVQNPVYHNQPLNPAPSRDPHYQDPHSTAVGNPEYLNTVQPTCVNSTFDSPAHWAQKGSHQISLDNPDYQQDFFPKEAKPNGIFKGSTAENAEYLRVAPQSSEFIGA
T3 sequence (P04626 676-1255 limits assumed): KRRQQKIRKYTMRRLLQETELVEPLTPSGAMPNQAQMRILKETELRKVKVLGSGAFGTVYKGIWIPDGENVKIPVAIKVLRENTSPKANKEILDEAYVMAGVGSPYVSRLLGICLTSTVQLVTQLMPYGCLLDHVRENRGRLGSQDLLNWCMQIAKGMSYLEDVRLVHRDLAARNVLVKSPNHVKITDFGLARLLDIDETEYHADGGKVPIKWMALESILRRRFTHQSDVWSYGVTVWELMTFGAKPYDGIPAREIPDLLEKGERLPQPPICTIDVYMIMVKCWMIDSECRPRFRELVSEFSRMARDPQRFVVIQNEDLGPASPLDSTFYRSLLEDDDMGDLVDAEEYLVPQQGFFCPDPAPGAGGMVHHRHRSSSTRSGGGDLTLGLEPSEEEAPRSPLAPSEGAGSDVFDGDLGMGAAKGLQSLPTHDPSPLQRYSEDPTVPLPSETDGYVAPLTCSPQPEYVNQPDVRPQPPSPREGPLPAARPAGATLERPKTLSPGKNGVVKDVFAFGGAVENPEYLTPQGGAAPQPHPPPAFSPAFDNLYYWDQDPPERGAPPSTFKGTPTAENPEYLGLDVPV
T2 sequence (Q15303 676-1308 limits assumed): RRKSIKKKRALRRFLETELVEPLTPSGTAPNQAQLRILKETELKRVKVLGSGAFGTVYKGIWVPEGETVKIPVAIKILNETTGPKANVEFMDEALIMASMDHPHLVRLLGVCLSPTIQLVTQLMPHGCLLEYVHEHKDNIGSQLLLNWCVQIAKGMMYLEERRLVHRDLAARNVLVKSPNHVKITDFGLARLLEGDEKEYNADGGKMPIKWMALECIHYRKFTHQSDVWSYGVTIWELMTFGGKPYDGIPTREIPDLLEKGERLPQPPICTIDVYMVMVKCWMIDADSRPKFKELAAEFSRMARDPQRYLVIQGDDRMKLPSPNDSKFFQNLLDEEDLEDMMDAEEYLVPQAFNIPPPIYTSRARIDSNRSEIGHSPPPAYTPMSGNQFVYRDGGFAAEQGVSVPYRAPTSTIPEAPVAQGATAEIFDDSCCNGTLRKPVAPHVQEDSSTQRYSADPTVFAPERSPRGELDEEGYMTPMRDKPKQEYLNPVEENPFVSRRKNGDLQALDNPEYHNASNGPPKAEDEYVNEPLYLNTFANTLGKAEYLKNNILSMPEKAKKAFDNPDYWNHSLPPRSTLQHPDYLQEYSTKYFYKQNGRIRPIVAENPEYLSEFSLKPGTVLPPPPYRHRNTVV

Row | Compound | IC50 [1] [nM] | IC50 (c-erbB-4) [nM] | IC50 (c-erbB-2) [nM] | IC50 (BT474 cells) [nM] | IC50 (N87 cells) [nM] | IC50 (HB4a c5.2 cells) [nM] | IC50 (HN5 cells) [nM]
1 | O=S(=O)(CCOCc1ccc(-c2ccc3ncnc(Nc4ccc(OCc5cccc(F)c5)c(Cl)c4)c3c2)o1)c1ccccc1 [Example 3, N-{3-chloro-4-[(3-fluorobenzyl)oxy]phenyl}-6-(5-{[2-(phenylsulfonyl)ethoxy]methyl}-2-furyl)-4-quinazolinamine] | < 100 | 1000 to 10000 | < 100 | 100 to 1000 | 100 to 1000 | 100 to 1000 | 100 to 1000
2 | O=S(=O)(CCNCc1ccc(-c2ccc3ncnc(Nc4ccc(OCc5cccc(F)c5)c(Cl)c4)c3c2)o1)c1ccccn1 [Example 5] | < 100 | 1000 to 10000 | < 100 | 1000 to 10000 | 100 to 1000 | 1000 to 10000 | 100 to 1000
3 | CCCS(=O)(=O)CCNCc1ccc(-c2ccc3ncnc(Nc4ccc(OCc5cccc(F)c5)c(Cl)c4)c3c2)o1 [Example 7] | < 100 | 100 to 1000 | < 100 | 1000 to 10000 | 1000 to 10000 | 1000 to 10000 | 1000 to 10000
4 | CS(=O)(=O)CCOCc1ccc(-c2ccc3ncnc(Nc4ccc(OCc5cccc(F)c5)c(Cl)c4)c3c2)o1 [Example 13, N-{3-chloro-4-[(3-fluorobenzyl)oxy]phenyl}-6-(5-{[2-(methylsulfonyl)ethoxy]methyl}-2-furyl)-4-quinazolinamine] | < 100 | 100 to 1000 | < 100 | 100 to 1000 | 100 to 1000 | 100 to 1000 | 100 to 1000
5 | C=CS(=O)(=O)CCOCc1ccc(-c2ccc3ncnc(Nc4ccc(OCc5cccc(F)c5)c(Cl)c4)c3c2)o1 [Example 14, N-{3-chloro-4-[(3-fluorobenzyl)oxy]phenyl}-6-(5-{[2-(vinylsulfonyl)ethoxy]methyl}-2-furyl)-4-quinazolinamine] | < 100 | 100 to 1000 | < 100 | 1000 to 10000 | 1000 to 10000 | 1000 to 10000 | 1000 to 10000
6 | CCN(CCS(C)(=O)=O)Cc1ccc(-c2ccc3ncnc(Nc4ccc(OCc5cccc(F)c5)c(Cl)c4)c3c2)o1 [Example 17, N-{3-chloro-4-[(3-fluorobenzyl)oxy]phenyl}-6-[5-({ethyl[2-(methylsulfonyl)ethyl]amino}methyl)-2-furyl]-4-quinazolinamine] | < 100 | 100 to 1000 | < 100 | 100 to 1000 | 100 to 1000 | 100 to 1000 | 100 to 1000

Further lines, with some results ahead:

Row | IC50 [1] [nM] | IC50 (c-erbB-4) [nM] | IC50 (c-erbB-2) [nM] | IC50 (BT474 cells) [nM] | Compound | IC50 (N87 cells) [nM] | IC50 (HB4a c5.2 cells) [nM] | IC50 (HN5 cells) [nM]
7 | < 100 | 100 to 1000 | < 100 | 100 to 1000 | Cn1ccnc1S(=O)(=O)CCNCc1ccc(-c2ccc3ncnc(Nc4ccc(OCc5cccc(F)c5)c(Cl)c4)c3c2)o1 [Example 2, (4-(3-Fluorobenzyloxy)-3-chlorophenyl)-(6-(2-((2-(2-N-methylimidazolyl)-sulphonyl-ethylamino)-methyl)-furan-2-yl)-quinazolin-4-yl)-amine] | 100 to 1000 | 100 to 1000 | 100 to 1000
8 | < 100 | 1000 to 10000 | < 100 | 100 to 1000 | CCCS(=O)(=O)CCNCc1ccc(-c2cc3c(Nc4ccc(OCc5cccc(F)c5)cc4)ncnc3cn2)o1 [Example 6] | 100 to 1000 | 100 to 1000 | 100 to 1000
9 | < 100 | 1000 to 10000 | < 100 | 100 to 1000 | CS(=O)(=O)CCNCCCc1ccc(-c2ccc3ncnc(Nc4ccc(OCc5ccccc5)c(Cl)c4)c3c2)o1 [Example 8] | 100 to 1000 | 100 to 1000 | 100 to 1000
10 | < 100 | 100 to 1000 | < 100 | < 100 | CS(=O)(=O)CCN(CC#N)Cc1ccc(-c2ccc3ncnc(Nc4ccc(OCc5cccc(F)c5)c(Cl)c4)c3c2)o1 [Example 15, 2-{{[5-(4-{3-chloro-4-[(3-fluorobenzyl)oxy]anilino}-6-quinazolinyl)-2-furyl]methyl}[2-(methylsulfonyl)ethyl]amino}acetonitrile] | 100 to 1000 | 100 to 1000 | < 100
11 | – | 100 to 1000 | 100 to 1000 | 100 to 1000 | CS(=O)(=O)CCN(Cc1ccccc1)Cc1ccc(-c2ccc3ncnc(Nc4ccc(OCc5cccc(F)c5)c(Cl)c4)c3c2)o1 [Example 16, 6-[5-({benzyl[2-(methylsulfonyl)ethyl]amino}methyl)-2-furyl]-N-{3-chloro-4-[(3-fluorobenzyl)oxy]phenyl}-4-quinazolinamine] | 100 to 1000 | 1000 to 10000 | 1000 to 10000
12 | < 100 | < 100 | < 100 | 100 to 1000 | CCCN(CCS(C)(=O)=O)Cc1ccc(-c2ccc3ncnc(Nc4ccc(OCc5cccc(F)c5)c(Cl)c4)c3c2)o1 [Example 18, N-{3-chloro-4-[(3-fluorobenzyl)oxy]phenyl}-6-(5-{[[2-(methylsulfonyl)ethyl](propyl)amino]methyl}-2-furyl)-4-quinazolinamine] | 100 to 1000 | 100 to 1000 | 100 to 1000
13 | – | 100 to 1000 | < 100 | 100 to 1000 | CC(C)S(=O)(=O)CCNCc1ccc(-c2ccc3ncnc(Nc4ccc(OCc5cccc(F)c5)c(Cl)c4)c3c2)o1 [Example 19] | 100 to 1000 | 100 to 1000 | –
